Reference: patent US8338173B2, “Preparation of antigen-presenting human γδ T cells and use in immunotherapy” (University College Cardiff Consultants Limited, priority 2005, dated 2012)

B1: Melan-A: melanocyte/melanoma-differentiation antigen (protein, UniProt Q16655 1-118, looked up)
Melanoma antigen recognized …: MPREDAHFIYGYPKKGHGHSYTTAEEAAGIGILTVILGVLLLIGCWYCRRRNGYRALMDKSLHVGTQCALTRRCPQEGFDHRDSKVSLQEKNCEPVVPNAPPAYEKLSAEQSPPPYSP

Legend:
[1] = tested on: M1p58-66-specific CD8^+ αβ T cell clone FLUMA55; assay type: cell-based, human
Vγ9Vδ2^+ T cells = assay: Expression of cell surface APC markers during γδ T cell activation with inhibitors; conditions: FIG. 19 B
naïve CD4^+ αβ T cells = assay type: cell-based, human
[2] = tested on: Melp26-35-specific, HLA-A2-restricted CD8^+ αβ T cell clone LAU 337; assay type: cell-based, human

Molecule | inhibition of M1 cross-presentation in γδ T-APCs and DCs [1] | responses to M1p58-66 pulsed APCs [1] | expression of cell surface APC markers (MHC II, CD71, CD80, CD86) after TCR-triggering (Vγ9Vδ2^+ T cells) | Vβ2^+ (%) (naïve CD4^+ αβ T cells) | IFN-γ production in Melp26-35-specific responder cell clones [2]
C[C@H]1CCC/C=C/[C@@H]2C[C@H](O)C[C@H]2[C@H](O)/C=C/C(=O)O1 [brefeldin A] | fully inhibited | only partially affected | inhibited | – | –
CCN(CC)CCCC(C)Nc1ccnc2cc(Cl)ccc12 (stereo not drawn) [chloroquin] | ≤ 50% | – | – | – | –
CC(=O)N[C@@H](CSC(=O)[C@]1([C@@H](O)C(C)C)NC(=O)[C@H](C)[C@@H]1O)C(=O)O [lactacystin] | fully inhibited | only partially affected | inhibited | – | –
phytohemagglutinin [PHA] | – | – | – | 9 | –
B1 | – | – | – | – | failed to induce IFN-γ production
